This test relates to Phytophthora infestans. It is filed as in vivo. Particulars: 63 ppm active ingredient; tomato leaves infected one week after application; assessed after 6 days; untreated plants 100%.

Here are results for one compound from patent US6696607B2 (priority 2000, dated 2004).

On to `CO/N=C(/C(=O)NCCc1ccc(OC)c(OC)c1)c1ccc(Cl)cc1` [comparative active ingredient], for which the disease level is recorded as 40%.
